Where a name gives a salt, the structure may show the parent alone.
How the values were obtained:
[1] = target: muscarinic cholinergic receptor; test: [3H] Quinuclidinyl Benzilate (3H-QNB) Binding Assay; set-up: species or system rat; settings: pH 7.4
[2] = target: muscarinic cholinergic receptor; test: [3H]-Cis-methyldioxolane (3H-CD) Binding Assay (High Affinity); settings: rat cerebral cortex, 1.0 nM 3H-CD, 25° C., 120 minutes, pH 7.4
aged monkey = settings: aged monkeys; cited from earlier work
SDAT patients = settings: cited from earlier work
[3] = rat cerebral cortex, 0.25 nM 3H-QNB, 25° C., 120 minutes

**Q.** Which IC50 [1] does the source give for `O=C1[C@@H](S)CCN1CC#CCN1CCCC1` [(S)-3-Mercapto-1-[4-(1-pyrrolidinyl)-2-butynyl]-2-pyrrolidinone, monohydrochloride] here?
**A.** 2 µM

**Q.** And the IC50 [2]?
**A.** 0.048 µM

**Q.** With `O=C(O[C@@H]1CCN(CC#CCN2CCCCC2)C1=O)c1ccc([N+](=O)[O-])cc1` [(R)-3-[(4-Nitrobenzoyl)oxy]-1-[4-(1-piperidinyl)-2-butynyl]-2-pyrrolidinone] as the molecule, how does the IC50 [1, 3] read?
**A.** 43 µM

**Q.** What about the IC50 [2] of the same molecule?
**A.** 0.937 µM

**Q.** Which IC50 [1] does the source give for `CO[C@H]1CCN(CC#CCN2CCCCC2)C1=O` [(S)-3-Methoxy-1-[4-(1-piperidinyl)-2-butynyl]-2-pyrrolidinone] here?
**A.** 673 µM

**Q.** What about the IC50 [2] of the same molecule?
**A.** 33.1 µM

**Q.** With `CC(=O)O[C@H]1CCN(CC#CCN(C)C)C1=O` [(S)-3-(Acetyloxy)-1-[4-(dimethylamino)-2-butynyl]-2-pyrrolidinone] as the molecule, how does the IC50 [1] read?
**A.** 1360 µM

**Q.** And the IC50 [2]?
**A.** 0.521 µM

**Q.** With `CC(=O)O[C@H]1CC(=O)N(CC#CCN(C)C)C1` [(S)-4-(Acetyloxy)-1-[4-(dimethylamino)-2-butynyl]-2-pyrrolidinone] as the molecule, how does the IC50 [1] read?
**A.** 1350 µM

**Q.** And the IC50 [2]?
**A.** 41.9 µM

**Q.** With `O=C1C[C@H](O)CN1CC#CCN1CCCC1` [(S)-4-Hydroxy-1-[4-(1-pyrrolidinyl)-2-butynyl]-2-pyrrolidinone] as the molecule, how does the IC50 [1] read?
**A.** 270 µM

**Q.** And the IC50 [2]?
**A.** 4.91 µM

**Q.** With `COC(=O)C1=CCCN(C)C1` [arecoline] as the molecule, how does the improvement in performance (aged monkey) read?
**A.** significant improvement in performance

**Q.** What about the “improvement compared to physostigmine” value (SDAT patients) of the same molecule?
**A.** more-consistent improvement when compared to the anticholinesterase inhibitor physostigmine

**Q.** For `O=C1[C@H](S)CCN1CC#CCN1CCCC1` [(R)-3-Mercapto-1-[4-(1-pyrrolidinyl)-2-butynyl]-2-pyrrolidinone], which IC50 [1] is on record?
**A.** 1 µM

**Q.** And the IC50 [2]?
**A.** 0.007 µM

**Q.** Which IC50 [1] does the source give for `CN(C)CC#CCN1CC[C@@H](S)C1=O` [(R)-1-[4-(Dimethylamino)-2-butynyl]-3-mercapto-2-pyrrolidinone, monohydrochloride] here?
**A.** 31 µM

**Q.** What about the IC50 [2] of the same molecule?
**A.** 0.076 µM

**Q.** For `O=C1CCCN1CC#CCN1CCCC1` [oxotremorine], which improvement in performance (aged monkey) is on record?
**A.** significant improvement in performance

**Q.** Which IC50 [1] does the source give for `CC(=O)O[C@@H]1CCN(CC#CCN2CCCC2)C1=O` [(R)-3-(Acetyloxy)-1-[4-(1-pyrrolidinyl)-2-butynyl]-2-pyrrolidinone] here?
**A.** 231 µM

**Q.** What about the IC50 [2] of the same molecule?
**A.** 0.547 µM

**Q.** With `CN(C)CC#CCN1CC[C@@H](OC(=O)c2ccc([N+](=O)[O-])cc2)C1=O` [(R)-1-[4-(Dimethylamino)-2-butynyl]-3-[(4-nitrobenzoyl)oxy]-2-pyrrolidinone] as the molecule, how does the IC50 [1, 3] read?
**A.** 113 µM

**Q.** What about the IC50 [2] of the same molecule?
**A.** 5.01 µM

Reference: US4937235A, “3- or 4-substituted oxotremorine derivatives” (American Cyanamid Company, priority 1989, dated 1990)
